Measurements as given in paper PMC4660985 (Biochemistry, 2015).

Experiments:
CYP125A3 = CYP125A3 (Mycolicibacterium smegmatis, UniProt A0R4Y3); assay: UV-vis spectral titration; assay type: binding
CYP125A4 [1] = biological target: T1, CYP125A4 (Mycolicibacterium smegmatis, UniProt A0QY38); assay: UV-vis spectral titration; assay type: binding
T1 sequence (A0QY38 1-430): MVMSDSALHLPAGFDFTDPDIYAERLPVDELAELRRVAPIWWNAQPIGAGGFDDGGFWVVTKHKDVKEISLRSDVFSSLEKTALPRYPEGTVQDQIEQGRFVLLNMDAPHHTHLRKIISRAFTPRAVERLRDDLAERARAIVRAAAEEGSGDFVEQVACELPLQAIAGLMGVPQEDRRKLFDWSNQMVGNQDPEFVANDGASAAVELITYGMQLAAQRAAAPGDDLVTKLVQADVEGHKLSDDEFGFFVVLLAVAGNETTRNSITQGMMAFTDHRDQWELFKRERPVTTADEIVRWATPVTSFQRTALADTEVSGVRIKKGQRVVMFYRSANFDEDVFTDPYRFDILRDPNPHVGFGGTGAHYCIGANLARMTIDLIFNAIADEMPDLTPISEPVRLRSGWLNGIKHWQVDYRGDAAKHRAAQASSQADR

CYP125A4 [2] = biological target: T1, CYP125A4; assay: UV-vis partial type I spectral shift; assay type: binding
[3] = system: CC(C)CCC[C@@H](C)[C@H]1CC[C@H]2[C@@H]3CCC4=CC(=O)CC[C@]4(C)[C@H]3CC[C@]12C; assay: steady-state turnover of purified enzyme, HPLC; assay type: biochemical, Mycolicibacterium smegmatis; settings: heme
[4] = system: CC(C)CCC[C@@H](C)[C@H]1CC[C@H]2[C@@H]3[C@H](O)CC4=CC(=O)CC[C@]4(C)[C@H]3CC[C@]12C; assay: steady-state turnover of purified enzyme, HPLC; assay type: biochemical, Mycolicibacterium smegmatis; settings: heme

Sequence of CYP125A3 (A0R4Y3 whole entry): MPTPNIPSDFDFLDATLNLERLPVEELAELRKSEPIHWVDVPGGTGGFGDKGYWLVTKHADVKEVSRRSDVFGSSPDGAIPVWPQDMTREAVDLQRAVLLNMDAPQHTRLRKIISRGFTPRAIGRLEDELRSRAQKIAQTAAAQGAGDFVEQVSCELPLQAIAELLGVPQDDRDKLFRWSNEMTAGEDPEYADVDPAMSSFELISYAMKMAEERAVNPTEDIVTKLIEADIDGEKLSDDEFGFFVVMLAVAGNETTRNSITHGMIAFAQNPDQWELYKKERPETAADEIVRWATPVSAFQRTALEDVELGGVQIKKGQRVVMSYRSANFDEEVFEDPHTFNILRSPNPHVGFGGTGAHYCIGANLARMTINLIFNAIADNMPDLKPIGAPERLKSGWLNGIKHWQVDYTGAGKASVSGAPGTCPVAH

Molecule: CC(C)CCC[C@@H](C)[C@H]1CC[C@H]2[C@@H]3[C@H](O)C=C4C[C@@H](O)CC[C@]4(C)[C@H]3CC[C@]12C [7α-hydroxycholesterol]
- Kd (CYP125A3): 32.9 ± 4.7 µM
- Kd (CYP125A4 [1]): 8.7 ± 0.5 µM

Molecule: CC(C)CCC[C@@H](C)[C@H]1CC[C@H]2[C@@H]3CC=C4C[C@@H](O)CC[C@]4(C)[C@H]3CC[C@]12C [cholesterol]
- UV-vis partial type I spectral shift; C-26 oxidation by HPLC (CYP125A4 [2]): Addition of cholesterol or 4-cholesten-3-one did induce a partial shift to the type I high-spin species

Molecule: CYP125A3 W83Y (Mycolicibacterium smegmatis MC2 155; W83Y)
- Km [3]: 24.1 ± 7.8 µM

Molecule: CYP125A4 Y87W (Mycolicibacterium smegmatis MC2 155; Y87W)
- Km [4]: 5.1 ± 1.3 µM
